# Where two headings read alike, the source gives them in different places.
# Key:
# ex vivo worms in culture = assay: Ex vivo parasite killing, visual examination of cultured worms; design: species or system Schistosoma
# TGR [1] = target: T1, TGR (Schistosoma mansoni, UniProt Q962Y6); details: cited from earlier work
# T1 sequence (Q962Y6 1-598): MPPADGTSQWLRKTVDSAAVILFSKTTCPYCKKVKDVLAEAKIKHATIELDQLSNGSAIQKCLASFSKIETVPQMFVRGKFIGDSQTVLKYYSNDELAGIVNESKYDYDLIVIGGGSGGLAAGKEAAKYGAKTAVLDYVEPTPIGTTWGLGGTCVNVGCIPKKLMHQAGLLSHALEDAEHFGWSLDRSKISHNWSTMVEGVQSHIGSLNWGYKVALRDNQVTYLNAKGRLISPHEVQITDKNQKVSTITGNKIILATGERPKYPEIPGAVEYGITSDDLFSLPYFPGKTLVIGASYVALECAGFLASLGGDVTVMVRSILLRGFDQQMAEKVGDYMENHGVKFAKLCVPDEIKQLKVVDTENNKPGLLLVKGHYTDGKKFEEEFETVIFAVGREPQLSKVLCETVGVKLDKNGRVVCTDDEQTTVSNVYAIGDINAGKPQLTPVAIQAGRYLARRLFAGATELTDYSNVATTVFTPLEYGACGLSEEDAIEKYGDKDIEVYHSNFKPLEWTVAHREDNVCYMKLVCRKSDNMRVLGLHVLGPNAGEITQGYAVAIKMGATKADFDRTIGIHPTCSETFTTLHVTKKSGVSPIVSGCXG
# [2] = ABTS oxidation; cited from earlier work
# [3] = target: T2, thioredoxin glutathione reductase (TGR) (Schistosoma mansoni, UniProt Q962Y6); assay type: biochemical
# T2 sequence (Q962Y6 1-598): T1 sequence (Q962Y6 1-598)
# TGR [4] = target: T1, TGR; assay type: biochemical; details: with TGR; ABTS method, data in supporting information
# [5] = NO release on reaction with cysteine, chemiluminescent assay; details: for NO donation on reaction with cysteine (in words): chemiluminescent assay
# Microsomal stability = details: human liver microsomes, 60 minutes at 37 °C; for Microsomal stability, NADPH (+): with NADPH; for Microsomal stability, NADPH (−): without NADPH
# Caco-2 permeability = details: human
# [6] = human, microsomes, 1 h
# [7] = target: T2, thioredoxin glutathione reductase (TGR); details: cited from earlier work
# [8] = 10 μM compound, cultured worms, 4 hr
# [9] = 10 μM compound, cultured worms, 24 hr
# [10] = 10 μM compound, cultured worms, 48 hr
SMILES,"Ex Vivo Parasite Killing 2 hr (ex vivo worms in culture; 10 μM compound, cultured worms)",Ex Vivo Parasite Killing 4 hr (ex vivo worms in culture; [8]),"Ex Vivo Parasite Killing 8 hr (ex vivo worms in culture; 10 μM compound, cultured worms)",Ex Vivo Parasite Killing 48 hr (ex vivo worms in culture; [10]),"Ex Vivo Parasite Killing 72 hr (ex vivo worms in culture; 10 μM compound, cultured worms)",further results
"O=C(c1cccs1)c1no[n+]([O-])c1C(=O)c1cccs1 [Analogue 3, bis(thiophen-2-ylmethanone)-furoxan]",n.e.,n.e.,n.e.,n.e.,n.e.,"Ex Vivo Parasite Killing 16 hr (ex vivo worms in culture; 10 μM compound, cultured worms): n.e.; Ex Vivo Parasite Killing 24 hr (ex vivo worms in culture; [9]): n.e.; NO generation in the presence of TGR/NADPH (TGR [1]): not in the presence of TGR/NADPH; NO generation in the presence of cysteine [2]: capable of NO generation in the presence of cysteine"
N#Cc1nonc1-c1ccccc1 [Analogue 4],–,–,–,–,–,TGR inhibition (in words) [3]: nor was either analogue active versus TGR; Ex vivo worm killing (in words) (ex vivo worms in culture): nor was either analogue active versus TGR or an effective ex vivo worm killing agent; NO release / NO donating ability (in words) (TGR [4]): no appreciable NO release with TGR
N#Cc1no[n+]([O-])c1-c1ccccc1 [Analogue 5],–,–,–,–,–,TGR inhibition (in words) [3]: nor was either analogue active versus TGR; Ex vivo worm killing (in words) (ex vivo worms in culture): nor was either analogue active versus TGR or an effective ex vivo worm killing agent; NO release / NO donating ability (in words) (TGR [4]): no appreciable NO release with TGR
Cc1c(-c2ccccc2)no[n+]1[O-] [Analogue 6],–,–,–,–,–,NO donation on reaction with cysteine (in words) [5]: nor was 6 capable of NO donation; NO release / NO donating ability (in words) (TGR [4]): inactive as a NO donor
[O-][n+]1onc(-c2ccccc2)c1CO [Analogue 7],–,–,–,–,–,NO release / NO donating ability (in words) (TGR [4]): only a weak NO donor
O=Cc1c(-c2ccccc2)no[n+]1[O-] [Analogue 8],–,–,–,–,–,NO release / NO donating ability (in words) (TGR [4]): only modest NO donating abilities
O=C(O)c1c(-c2ccccc2)no[n+]1[O-] [Analogue 9],–,–,–,–,–,NO release / NO donating ability (in words) (TGR [4]): only modest NO donating abilities
N#Cc1c(-c2cccc([N+](=O)[O-])c2)no[n+]1[O-] [Analogue 11],n.e.,n.e.,n.e.,–,–,"Ex Vivo Parasite Killing 16 hr (ex vivo worms in culture; 10 μM compound, cultured worms): sluggish"
N#Cc1c(-c2cccc(C(F)(F)F)c2)no[n+]1[O-] [Analogue 12],n.e.,n.e.,–,100%D,100%D,–
N#Cc1c(-c2ccc(F)c(Br)c2)no[n+]1[O-] [Analogue 13],n.e.,n.e.,curling,–,100%D,Ex Vivo Parasite Killing 24 hr (ex vivo worms in culture; [9]): 50%D
N#Cc1c(-c2cccc(Br)c2)no[n+]1[O-] [Analogue 14],n.e.,n.e.,–,100%D,100%D,Ex Vivo Parasite Killing 24 hr (ex vivo worms in culture; [9]): 100%D
N#Cc1c(-c2cccc(Cl)c2)no[n+]1[O-] [Analogue 15],n.e.,sluggish,–,–,100%D,–
N#Cc1c(-c2ccc(Br)cc2)no[n+]1[O-] [Analogue 16],n.e.,sluggish,–,100%D,100%D,"Ex Vivo Parasite Killing 24 hr (ex vivo worms in culture; [9]): 100%D; Microsomal stability, NADPH (+) (Microsomal stability): 10 % remaining; Microsomal stability, NADPH (−) (Microsomal stability): 67 % remaining"
N#Cc1c(-c2ccc(Cl)cc2)no[n+]1[O-] [Analogue 17],n.e.,n.e.,n.e.,–,100%D,"Ex Vivo Parasite Killing 16 hr (ex vivo worms in culture; 10 μM compound, cultured worms): sluggish"
N#Cc1c(-c2ccc(C(F)(F)F)cc2)no[n+]1[O-] [Analogue 18],n.e.,n.e.,–,–,100%D,–
N#Cc1c(-c2cccc(O)c2)no[n+]1[O-] [Analogue 19],n.e.,n.e.,–,n.e.,n.e.,"Ex Vivo Parasite Killing 16 hr (ex vivo worms in culture; 10 μM compound, cultured worms): n.e.; Ex Vivo Parasite Killing 24 hr (ex vivo worms in culture; [9]): n.e."
N#Cc1c(-c2ccc(F)cc2)no[n+]1[O-] [Analogue 20],n.e.,n.e.,–,100%D,100%D,–
COc1ccccc1-c1no[n+]([O-])c1C#N [Analogue 21],n.e.,n.e.,–,–,–,–
COc1cc(-c2no[n+]([O-])c2C#N)cc(OC)c1OC [Analogue 22],n.e.,n.e.,–,–,–,"Ex Vivo Parasite Killing 16 hr (ex vivo worms in culture; 10 μM compound, cultured worms): sluggish"
COc1cccc(-c2no[n+]([O-])c2C#N)c1 [Analogue 23],n.e.,n.e.,n.e.,–,–,"Ex Vivo Parasite Killing 16 hr (ex vivo worms in culture; 10 μM compound, cultured worms): n.e."
COc1ccc(-c2no[n+]([O-])c2C#N)cc1 [Analogue 24],n.e.,n.e.,n.e.,–,100%D,–
Cc1ccc(-c2no[n+]([O-])c2C#N)cc1 [Analogue 25],n.e.,n.e.,n.e.,–,–,–
N#Cc1c(-c2ccc(-c3ccccc3)cc2)no[n+]1[O-] [Analogue 26],n.e.,n.e.,sluggish,–,–,"Ex Vivo Parasite Killing 16 hr (ex vivo worms in culture; 10 μM compound, cultured worms): sluggish; Ex Vivo Parasite Killing 24 hr (ex vivo worms in culture; [9]): 20%D"
N#Cc1c(-c2ccc(O)cc2)no[n+]1[O-] [Analogue 27],n.e.,n.e.,sluggish,–,100%D,–
N#Cc1c(-c2ccco2)no[n+]1[O-] [Analogue 28],n.e.,n.e.,–,100%D,100%D,NO release / NO donating ability (in words) (TGR [4]): good NO release profiles
N#Cc1c(-c2cccs2)no[n+]1[O-] [Analogue 29],n.e.,n.e.,–,100%D,100%D,"NO release / NO donating ability (in words) (TGR [4]): good NO release profiles; Papp A→B (Caco-2 permeability): 8.4 ×10⁻⁶ cm/s; Microsomal stability, NADPH (+) (Microsomal stability): 1 % remaining; Microsomal stability, NADPH (−) (Microsomal stability): 64 % remaining"
N#Cc1c(C(=O)c2cccs2)no[n+]1[O-] [Analogue 30],n.e.,n.e.,n.e.,n.e.,n.e.,"Ex Vivo Parasite Killing 16 hr (ex vivo worms in culture; 10 μM compound, cultured worms): n.e.; Ex Vivo Parasite Killing 24 hr (ex vivo worms in culture; [9]): n.e.; NO donation on reaction with cysteine (in words) [5]: capable of releasing NO"
N#Cc1c(-c2cccc(-c3no[n+]([O-])c3C#N)c2)no[n+]1[O-] [Analogue 31],–,–,–,–,–,Ex Vivo Parasite Killing 4 hr (ex vivo worms in culture): curling; Ex Vivo Parasite Killing 24 hr (ex vivo worms in culture): 100%D; Ex Vivo Parasite Killing 48 hr (ex vivo worms in culture): 100%D
N#Cc1c(-c2cc(F)cc(-c3no[n+]([O-])c3C#N)c2)no[n+]1[O-] [Analogue 33],–,–,–,–,–,"Ex Vivo Parasite Killing 48 hr (ex vivo worms in culture): 100%D; NO equivalents produced per equivalent of reagent [5]: 1.55 molar equivalents; Microsomal stability, NADPH (+) [6]: 20/51 % remaining; Microsomal stability, NADPH (−) [6]: 20/51 % remaining"
CC(=O)OC[C@H]1O[C@@H]([S-])[C@H](OC(C)=O)[C@@H](OC(C)=O)[C@@H]1OC(C)=O.CCP(CC)CC.[Au+] [auranofin],–,–,–,–,–,TGR inhibition (in words) [7]: potent inhibitor of TGR

# From article PMC2772170 (Journal of medicinal chemistry, 2009)
